Like-named read-outs stand apart in the source and are kept apart here.
System: influenza A virus (A/PR/8/34)
Experiment: microbe, parasite or virus in culture
Assay type: cell-based
[1] = Influenza A virus, PR/8, MDCK, read-out: IC50 (mean all)
[2] = Influenza A virus, PR/8, MDCK, MDCK cells infected with A/PR/8/34, cell protection (CPE), read-out: IC50 (mean all)
[3] = Influenza A virus, PR/8, MDCK, MDCK cells infected with A/PR/8/34, survival of infected cells, class symbols, read-out: IC50 (mean all)
[4] = Influenza A virus, PR/8, MDCK, mean all, A/PR/8/34 infected MDCK cells, CPE assay, read-out: IC50
[5] = mean all, A/PR/8/34 infected MDCK cells, CPE assay, read-out: IC50

| SMILES | IC50 [2] | IC50 [4] | also measured |
| --- | --- | --- | --- |
| COC(=O)c1ccc(OC(=O)N2CCC[C@H](CNc3nc(-c4c[nH]c5ncc(Cl)cc45)ncc3F)C2)cc1 [Compound 63, (R)-4-(methoxycarbonyl)phenyl 3-((2-(5-chloro-1H-pyrrolo[2,3-b]pyridin-3-yl)-5-fluoropyrimidin-4-ylamino)methyl)piperidine-1-carboxylate] |  |  | IC50 [1]: > 20 µM |
| COCCOC(=O)N1CCC[C@@H](CNc2nc(-c3c[nH]c4ncc(Cl)cc34)ncc2F)C1 [Compound 24, (S)-2-methoxyethyl 3-((2-(5-chloro-1H-pyrrolo[2,3-b]pyridin-3-yl)-5-fluoropyrimidin-4-ylamino)methyl)piperidine-1-carboxylate] | > 20 µM |  |  |
| O=C1CC[C@H](CNc2nc(-c3c[nH]c4ncc(Cl)cc34)ncc2F)N1 [Compound 503] |  |  | IC50 [3]: < 5 µM |
| O=C(Oc1ccc(F)cc1)N1CCC[C@H](CNc2nc(-c3c[nH]c4ncc(Cl)cc34)ncc2F)C1 [Compound 73, (R)-4-fluorophenyl 3-((2-(5-chloro-1H-pyrrolo[2,3-b]pyridin-3-yl)-5-fluoropyrimidin-4-ylamino)methyl)piperidine-1-carboxylate] |  |  | IC50 [1]: 5 to 20 µM |
| CC(C)CC(=O)N1CCC[C@H](Nc2ccnc(-c3c[nH]c4ncc(Cl)cc34)n2)C1 [Compound 489] |  |  | IC50 [3]: < 5 µM |
| O=C(O)CCCC(=O)N1CCC[C@H](CNc2nc(-c3c[nH]c4ncc(Cl)cc34)ncc2F)C1 [Compound 53, (R)-5-(3-((2-(5-chloro-1H-pyrrolo[2,3-b]pyridin-3-yl)-5-fluoropyrimidin-4-ylamino)methyl)piperidin-1-yl)-5-oxopentanoic acid] | 5 to 20 µM |  |  |
| O=C(CCCCl)N1CCCC[C@@H]1CNc1nc(-c2c[nH]c3ncc(Cl)cc23)ncc1F [Compound 278, (R)-4-chloro-1-(2-((2-(5-chloro-1H-pyrrolo[2,3-b]pyridin-3-yl)-5-fluoropyrimidin-4-ylamino)methyl)piperidin-1-yl)butan-1-one] | > 20 µM |  |  |
| CCCS(=O)(=O)N[C@@H]1CCCC[C@H]1Nc1nc(-c2c[nH]c3ncc(Cl)cc23)ncc1F [Compound 354, N-[(1R,2R)-2-[[2-(5-chloro-1H-pyrrolo[2,3-b]pyridin-3-yl)-5-fluoro-pyrimidin-4-yl]amino]cyclohexyl]propane-1-sulfonamide] |  | > 20 µM |  |
| CC(C)S(=O)(=O)N1CCOC(CNc2nc(-c3c[nH]c4ncc(Cl)cc34)ncc2F)C1 (stereo not shown) [Compound 448, 2-(5-chloro-1H-pyrrolo[2,3-b]pyridin-3-yl)-5-fluoro-N-((4-(isopropylsulfonyl)morpholin-2-yl)methyl)pyrimidin-4-amine] |  | > 20 µM |  |
| CC1(C(=O)N2CCC[C@H](Nc3nc(-c4c[nH]c5ncc(Cl)cc45)ncc3F)C2)CC1 [Compound 445] |  | < 5 µM |  |
| O=C(C1CCOC1)N1CCC(Nc2nc(-c3c[nH]c4ncc(Cl)cc34)ncc2F)C1 (stereo not shown) [Compound 467] |  |  | IC50 [5]: > 20 µM |
| CC1(C(=O)N2CC[C@@H](Nc3nc(-c4c[nH]c5ncc(Cl)cc45)ncc3F)C2)COC1 [Compound 473] |  | 5 to 20 µM |  |
| O=C(O)COCC(=O)N1CCC[C@H](CNc2nc(-c3c[nH]c4ncc(Cl)cc34)ncc2F)C1 [Compound 54, (R)-2-(2-(3-((2-(5-chloro-1H-pyrrolo[2,3-b]pyridin-3-yl)-5-fluoropyrimidin-4-ylamino)methyl)piperidin-1-yl)-2-oxoethoxy)ethanoic acid] | 5 to 20 µM |  |  |
| CNC(=O)N1CCCC[C@@H]1CNc1nc(-c2c[nH]c3ncccc23)ncc1F [Compound 374, (R)-2-((5-fluoro-2-(1H-pyrrolo[2,3-b]pyridin-3-yl)pyrimidin-4-ylamino)methyl)-N-methylpiperidine-1-carboxamide] |  | > 20 µM |  |
| CCCC(=O)N[C@@H]1CCCC[C@@H]1Nc1nc(-c2c[nH]c3ncccc23)ncc1F (relative stereo) [Compound 342, N-[cis-2-[[5-fluoro-2-(1H-pyrrolo[2,3-b]pyridin-3-yl)pyrimidin-4-yl]amino]cyclohexyl]butanamide] |  | > 20 µM |  |
| CCCS(=O)(=O)N1CC(Nc2nc(-c3c[nH]c4ncc(Cl)cc34)ncc2F)C1 [Compound 423] |  |  | IC50 (Influenza A virus, PR/8, MDCK, read-out: IC50): > 20 µM |
| O=S(=O)(CC1CCCC1)N1CC[C@H](Nc2nc(-c3c[nH]c4ncc(Cl)cc34)ncc2F)C1 [Compound 479, (S)-2-(5-chloro-1H-pyrrolo[2,3-b]pyridin-3-yl)-N-(1-(cyclopentylmethylsulfonyl)pyrrolidin-3-yl)-5-fluoropyrimidin-4-amine] |  | > 20 µM |  |
| CC(C)C(=O)N1CCC[C@H](Nc2nc(-c3c[nH]c4ncc(Cl)cc34)ncc2F)C1 [Compound 436] |  | < 5 µM |  |
| CC(C)OC(=O)N1CCC[C@@H](CNc2nc(-c3c[nH]c4ncc(Cl)cc34)ncc2F)C1 [Compound 35, (S)-isopropyl 3-((2-(5-chloro-1H-pyrrolo[2,3-b]pyridin-3-yl)-5-fluoropyrimidin-4-ylamino)methyl)piperidine-1-carboxylate] | > 20 µM |  |  |
| O=C(O[C@H]1CCOC1)N1CC[C@@H](Nc2nc(-c3c[nH]c4ncc(Cl)cc34)ncc2F)C1 [Compound 424] |  | > 20 µM |  |
| CN(C)C(=O)N[C@H]1CCCC[C@@H]1Nc1nc(-c2c[nH]c3ncc(Cl)cc23)ncc1F [Compound 427, 3-[(1S,2S)-2-[[2-(5-chloro-1H-pyrrolo[2,3-b]pyridin-3-yl)-5-fluoro-pyrimidin-4-yl]amino]cyclohexyl]-1,1-dimethyl-urea] |  | > 20 µM |  |
| O=C1NCCC1Nc1nc(-c2c[nH]c3ncccc23)ncc1F (stereo not shown) [Compound 377] |  |  | IC50 [5]: > 20 µM |
| CCCS(=O)(=O)N[C@@H]1CCCC[C@H]1Nc1nc(-c2c[nH]c3ncc(Cl)cc23)ncc1F (relative stereo) [Compound 367, N-[trans-2-[[2-(5-chloro-1H-pyrrolo[2,3-b]pyridin-3-yl)-5-fluoro-pyrimidin-4-yl]amino]cyclohexyl]propane-1-sulfonamide] |  | 5 to 20 µM |  |
| O=C(c1ccc2c(c1)OCO2)N1CCC[C@H](CNc2nc(-c3c[nH]c4ncc(Cl)cc34)ncc2F)C1 [Compound 103, (R)-benzo[d][1,3]dioxol-5-yl(3-((2-(5-chloro-1H-pyrrolo[2,3-b]pyridin-3-yl)-5-fluoropyrimidin-4-ylamino)methyl)piperidin-1-yl)methanone] | < 5 µM |  |  |
| O=C(Cn1ccnc1)N1CCC[C@@H](CNc2nc(-c3c[nH]c4ncc(Cl)cc34)ncc2F)C1 [Compound 50, (S)-1-(3-((2-(5-chloro-1H-pyrrolo[2,3-b]pyridin-3-yl)-5-fluoropyrimidin-4-ylamino)methyl)piperidin-1-yl)-2-(1H-imidazol-1-yl)ethanone] | > 20 µM |  |  |
| O=C(c1ccccc1F)N1CCC[C@H](CNc2nc(-c3c[nH]c4ncc(Cl)cc34)ncc2F)C1 [Compound 58, (R)-(3-((2-(5-chloro-1H-pyrrolo[2,3-b]pyridin-3-yl)-5-fluoropyrimidin-4-ylamino)methyl)piperidin-1-yl)(2-fluorophenyl)methanone] | < 5 µM |  |  |
| CCCNC(=O)N1CCOCC1CNc1nc(-c2c[nH]c3ncc(Cl)cc23)ncc1F (stereo not shown) [Compound 517, 3-((2-(5-chloro-1H-pyrrolo[2,3-b]pyridin-3-yl)-5-fluoropyrimidin-4-ylamino)methyl)-N-propylmorpholine-4-carboxamide] |  |  | IC50 [3]: 5 to 20 µM |
| CC(C)C(=O)N1CCC[C@@H](CNc2nc(-c3c[nH]c4ncc(Cl)cc34)ncc2F)C1 [Compound 34, (S)-1-(3-((2-(5-chloro-1H-pyrrolo[2,3-b]pyridin-3-yl)-5-fluoropyrimidin-4-ylamino)methyl)piperidin-1-yl)-2-methylpropan-1-one] | < 5 µM |  |  |

From patent US8829007B2 (priority 2009, dated 2014)
